Source: the supplement of paper PMC10307832

Tests used:
Test in all cases: relative viability (nuclei count vs DMSO), 5 days (fraction); higher = more cells survive
[1] = compound: Nc1ccccc1NC(=O)c1ccc(CNC(=O)OCc2cccnc2)cc1 [Entinostat] + C[C@@H](Oc1cc(-c2cnn(C3CCNCC3)c2)cnc1N)c1c(Cl)ccc(F)c1Cl [Crizotinib] (partner 1 µM)
How it was run: (§1)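 For relative viability, nuclei counts in treated wells were divided by those in vehicle wells. Lung cancer cell lines had been pin-tool dosed in 1536-well plates the day after seeding and cultured for 5 days, then fixed and stained in one step (final 0.05% Triton X-100, 1% formaldehyde, 1 ug/ml Hoechst) and imaged at 4×. Doses were one drug alone or a fixed anchor-drug dose plus five library-drug doses (not always all listed) in √10 steps, and values are duplicate-plate medians.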

[2] = compound: CN1CCC(CNc2ccc3ncc(-c4cccc(OC(F)(F)F)c4)n3n2)CC1 [SGI-1776] + O=C(CCCCCCC(=O)Nc1ccccc1)NO [Vorinostat] (partner 1 µM)
How it was run: as §1

[3] = compound: C1COCCN1C2=NC(=NC3=C2OC4=C3C=CC=N4)C5=CC(=CC=C5)NC(=O)C6=CN=C(C=C6)N + Nc1nc2[nH]cc(CCc3ccc(C(=O)N[C@@H](CCC(=O)O)C(=O)O)cc3)c2c(=O)[nH]1 [Pemetrexed] (partner 0.2 µM)
How it was run: as §1

[4] = compound: C1COCCN1C2=NC(=NC3=C2OC4=C3C=CC=N4)C5=CC(=CC=C5)NC(=O)C6=CN=C(C=C6)N + O=C(CCCCCCC(=O)Nc1ccccc1)NO [Vorinostat] (partner 1 µM)
How it was run: as §1

Cell Line: UMC-11
- relative viability ([1]; first compound 0.02 µM): 0.623
- relative viability ([1]; first compound 0.06325 µM): 0.646
- relative viability ([1]; first compound 0.2 µM): 0.363
- relative viability ([1]; first compound 0.6325 µM): 0.109
- relative viability ([1]; first compound 2 µM): 0.0765
- relative viability ([2]; first compound 0.08 µM): 0.404
- relative viability ([2]; first compound 0.8 µM): 0.378
- relative viability ([2]; first compound 2.53 µM): 0.357
- relative viability ([2]; first compound 8 µM): 0.228
- relative viability ([3]; first compound 0.02 µM): 0.772
- relative viability ([3]; first compound 0.06325 µM): 0.827
- relative viability ([3]; first compound 0.2 µM): 0.694
- relative viability ([3]; first compound 0.6325 µM): 0.814
- relative viability ([3]; first compound 2 µM): 0.445
- relative viability ([4]; first compound 0.02 µM): 0.415
- relative viability ([4]; first compound 0.06325 µM): 0.382
- relative viability ([4]; first compound 0.2 µM): 0.352
- relative viability ([4]; first compound 0.6325 µM): 0.369
- relative viability ([4]; first compound 2 µM): 0.264
